In US20120226031A1, “PALMARUMYCIN BASED INHIBITORS OF THIOREDOXIN AND METHODS OF USING SAME” (ARIZONA BOARD OF REGENTS, ACTING ON BEHALF OF THE …, priority 2005, published 2012):
Where two headings read alike, the source gives them in different places.

What was measured:
[1] = target: T1, human thioredoxin reductase (Homo sapiens, UniProt Q16881); assay: Inhibition of purified human thioredoxin reductase (TrxR/TR); type: biochemical
T1 construct: (placenta); from tissue; host or cells: human placenta
T1 sequence (Q16881 151-649 limits assumed): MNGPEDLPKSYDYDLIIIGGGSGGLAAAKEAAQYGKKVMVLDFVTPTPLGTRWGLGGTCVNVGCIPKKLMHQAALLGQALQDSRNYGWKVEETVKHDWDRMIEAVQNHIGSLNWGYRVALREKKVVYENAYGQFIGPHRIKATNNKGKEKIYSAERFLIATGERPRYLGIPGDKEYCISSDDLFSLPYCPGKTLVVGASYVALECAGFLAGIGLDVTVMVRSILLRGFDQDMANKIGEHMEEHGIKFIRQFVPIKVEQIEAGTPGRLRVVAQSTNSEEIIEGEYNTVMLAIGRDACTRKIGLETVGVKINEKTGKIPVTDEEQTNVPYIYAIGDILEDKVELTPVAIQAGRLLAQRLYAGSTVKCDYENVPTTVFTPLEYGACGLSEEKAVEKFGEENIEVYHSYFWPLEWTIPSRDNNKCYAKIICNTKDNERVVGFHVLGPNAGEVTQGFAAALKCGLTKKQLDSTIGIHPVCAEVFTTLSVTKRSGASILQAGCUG

[2] = system: MCF-7 human breast cancer cells; assay: MCF-7 breast cancer cell growth inhibition; type: cell-based
Protocol: MCF-7 human breast cancer cells were grown in medium containing 1 μM selenium (Se) for 7 days which increased cellular thioredoxin reductase activity by about 5 fold as previously reported.

Aqueous solubility = type: physicochemical
[3] = Stability in fresh mouse plasma at room temperature; type: in vitro ADME
Protocol: (§1) Two metabolite peaks could be seen at 5 minutes, but were undetectable by 30 minutes.

[4] = Plasma levels in mice after i.v. administration; type: in vivo, mouse; parameters: dose or concentration left out as unconfirmed; conditions: after PX-916 i.v. to mice
Protocol: as §1

[5] = pH dependent stability in water / 0.1M sodium phosphate buffer; type: physicochemical; conditions: for half-life at 100 g/ml / T1/2: 100 g/ml in 0.1M sodium phosphate buffer
Protocol: PX-916 was stable as a stock solution in ethanol at room temperature with a half life of >5 days. […] Therefore, for in vitro studies PX-916 was used as a stock solution in ethanol, and for in vivo studies made fresh in pH 4.0 buffer vehicle.
Further palmarumycin analogs were synthesized and tested. The following analogs were synthesized: eee269-II, eee86-III, eee263-II and eee273-II. The stability of the analogs was measured in various solutions.

[6] = Stability of prodrugs in ES1e mouse plasma (formation of parent compound); type: in vitro ADME; conditions: first 20 min of incubation at 1 mg/ml and 33° C.
Protocol: (§2) The stability of the analogs and formation of the parent compound in plasma was measured and is presented in FIG. 7, FIG. 8 and Table 6 (measured by the formation of parent compound over the first 20 min of incubation at 1 mg/ml and at 33° C.), below.

[7] = Stability of prodrugs in mouse plasma (formation of parent compound); type: in vitro ADME; conditions: first 20 min of incubation at 1 mg/ml and 33° C.
Protocol: as §2

[8] = Stability of prodrugs in human plasma (formation of parent compound); type: in vitro ADME; conditions: first 20 min of incubation at 1 mg/ml and 33° C.
Protocol: as §2

[9] = Table 1, read-out: TrxR inhibitory activity IC50
[10] = Homo sapiens, MCF7, Table 1, read-out: MCF-7 growth inhibition IC50
[11] = Table 2, read-out: Inhibition of human thioredoxin reductase IC50

SMILES | IC50 [1, 9] | IC50 [2, 10] | IC50 [1, 11] | half-life at 100 g/ml ([5]; pH 4.0) | half-life at 100 g/ml ([5]; pH 7.0) | further results
CC(C)C(N)C(=O)Oc1ccc2c3c(cccc13)OC1(C=CC(=O)c3ccccc31)O2 (stereo not shown) [Compound 11] | 0.62 µM | 2.2 µM |  |  |  | 
O=C1C=CC2(Oc3cccc4c(OCCN5CCOCC5)ccc(c34)O2)c2ccccc21 (stereo not shown) [Compound 13] | 1.6 µM | 1.2 µM |  |  |  | 
O=C1C=CC2(Oc3cccc4c(OCCN5CCOCC5)ccc(c34)O2)c2cccc(O)c21 (stereo not shown) [Compound 14] | 4.2 µM | 2.6 µM |  |  |  | 
COc1ccc2c3c(cccc13)OC1(C=CC(=O)c3ccccc31)O2 (stereo not shown) [PX-911] |  |  | 3.2 µM |  |  | IC50 ([2]; Homo sapiens, MCF7, Table 2, read-out: Inhibition of MCF-7 breast cancer cell growth IC50): 9.2 µM
O=C1C=CC2(Oc3cccc4c(O)ccc(c34)O2)c2cccc(O)c21 (stereo not shown) [PX-960] | 0.2 µM | 2.6 µM | 0.27 µM |  |  | solubility (Aqueous solubility; water, read-out: water solubility): < 100 µg/mL; half life in mouse plasma [3]: about 31 minutes; half-life [3]: ~0.517 h; IC50 ([2]; Homo sapiens, MCF7, read-out: Inhibition of MCF-7 breast cancer cell growth IC50): 4.1 µM; detection of PX-960 in plasma ([4]; at 5 minutes): only a very small peak; detection of PX-960 in plasma ([4]; at 30 minutes): No PX-960 was detected
O=C1C=CC2(Oc3cccc4c(OC5OC(CO)C(O)C(O)C5O)ccc(c34)O2)c2cccc(O)c21 (stereo not shown) [eee86-III] |  |  |  | > 100 h | > 100 h | 
CC(C)(N)C(=O)Oc1ccc2c3c(cccc13)OC1(C=CC(=O)c3c(O)cccc31)O2 (stereo not shown) [eee263-II] |  |  |  |  |  | formation of parent compound, ES1e mouse plasma [6]: 82 area/20 min; T1/2 ([5]; pH 4.0): >100 h; T1/2 ([5]; pH 7.0): >100 h; formation of parent compound, Mouse Plasma [7]: 42 area/20 min; formation of parent compound, Human plasma [8]: 81 area/20 min
CC(C)(NNC1CC(=O)c2c(O)cccc2C12Oc1cccc3c(O)ccc(c13)O2)C(N)=O (stereo not shown) [eee269-II] |  |  |  | > 100 h | 0.2 h | stability in aqueous solutions ([5]; in words): unstable in aqueous solutions
NC(Cc1ccccc1)C(=O)Oc1ccc2c3c(cccc13)OC1(C=CC(=O)c3c(O)cccc31)O2 (stereo not shown) [eee273-II] |  |  |  | > 100 h | > 100 h | solubility at 1 mg/ml (Aqueous solubility; 1 mg/ml, plasma stability study): very insoluble
O=C1C=CC2(Oc3cccc4cccc(c34)O2)c2cccc(O)c21 [palmarumycin C1, palmarumycin CP1, reference compound] |  |  | 0.35 µM |  |  | solubility in aqueous media (Aqueous solubility; in words): almost insoluble in aqueous media; IC50 ([2]; Table 2, read-out: Inhibition of MCF-7 breast cancer cell growth IC50): 1 µM; IC50 ([2]; text b151, summary of Table 2, read-out: concentration of cell growth inhibition of MCF-7 cells): 1 to 3 µM
